# Data: patent publication US20250073338A1, “CONJUGATE COMPOUNDS AND COMPOSITIONS” (REZUBIO PHARMACEUTICALS CO., LTD, priority 2023, published 2025)
# Structures can show the parent of a compound that is named as a salt.
# Legend:
# GPR40 = biological target: T1, GPR40 (Homo sapiens, UniProt O14842); assay: IP1 accumulation assay in HEK293 cells stably expressing GPR40; type: cell-based; conditions: HEK293 cells stably expressing GPR40, 2 hours at 37° C.
# T1 construct: expressed in transfected cells
# T1 sequence (O14842 whole entry): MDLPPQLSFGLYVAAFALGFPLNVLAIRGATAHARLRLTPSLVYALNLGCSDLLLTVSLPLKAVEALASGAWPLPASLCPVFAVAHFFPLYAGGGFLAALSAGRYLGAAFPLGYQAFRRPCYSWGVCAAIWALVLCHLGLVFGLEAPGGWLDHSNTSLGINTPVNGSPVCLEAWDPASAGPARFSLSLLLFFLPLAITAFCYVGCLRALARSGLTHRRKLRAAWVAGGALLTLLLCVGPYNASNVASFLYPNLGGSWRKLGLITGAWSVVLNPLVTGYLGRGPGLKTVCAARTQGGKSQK
# Procedure: IP1 accumulation assay was used to evaluate the potency of compounds. HEK293 cells stably expressing GPR40 were cultured in 5% CO2 incubator (ThermoFisher) in maintenance media (Dulbecco's modified Eagle's medium with 4.5 g/L of glucose, 10% fetal bovine serum, 100 μg/mL Hygromycin, and Penicillin (100 U/mL)/Streptomycin (100 μg/mL)) till 100% confluency. Cells were harvested freshly, spun down at 300× g for 5 min, and resuspended in pre-warmed 1× stimulant buffer from Cisbio IP-One HTRF Detection kit (Cisbio). Cell density was adjusted to 2.0×10^6 cells/mL. DMSO was used as blank control and AMG-1638 (CAS #: 1142214-62-7) as positive control. Compounds were prepared at 10 mM in DMSO and 5 nL of 3× serially diluted compounds (10 concentrations) were added to each well of the 384-LDV assay plate (Corning) by using ECHO 550 (Labcyte). Five μL of cells in suspension were transferred into each well by using Multidrop Combi Reagent Dispenser (ThermoFisher). Assay plate was then sealed and incubated at 37° C. for 2 hours. IP-d2 reagent and anti-IP1 reagent were prepared following the manual (Cisbio). Five μL of IP1-d2 and then 5 μL of anti-IP1 antibody was added to each well sequentially. Assay plate was incubated at room temperature for 60 min and then read at 665 nm/615 nm on an Envision plate reader (PerkinElmer). The ratio of values obtained at 665 nm and 615 nm was used for calculation of IP1 accumulation: % Effect=(Ratiosample−Ratioblank)/(RatioAMG-1638−Ratioblank)×100. Dose curve was fitted and EC50 of each compound was calculated by using XLFit.
# [1] = Pharmacokinetics in mice (IV and PO), plasma LC-MS/MS; type: in vivo, Male ICR (CD-1) mice; conditions: for Cl / AUC / half-life / Vd: IV (1 mpk); for AUC / half-life / Vd / Cmax / Tmax / bioavailability: male, ICR (CD-1), mouse, plasma; for AUC / half-life / Vd: 1 mg/kg; for half-life: read-out: T½ (converted); for Vd: read-out: Vss; for Cmax / Tmax / bioavailability: 10 mg/kg, PO (10 mpk); for bioavailability: oral bioavailability
# Procedure: Male ICR (CD-1) mice at around 4-6 weeks with body weight of around 25 grams (n=3) were purchased from VT-River (Zhejiang, China). After 1-week acclimation, animals were dosed with exemplary compounds intravenously at 1 mpk or orally at 10 mpk (0.5% methylcellulose in PBS as vehicle for both routes of administration). Blood samples (30 μL) were collected via saphenous vein puncture at 5 (IV only), 15, 30, 60, 120, 240, 480, and 1440 min post dose. The blood samples were saved in 0.5 M K2EDTA coated tubes and centrifuged at 4,600 rpm at 4° C. for 5 min. Plasma samples were collected and stored in −80° C. till PK analysis.
# Take 10 μL of K2EDTA-treated plasma samples of CD-1 mice, add 200 μL of precipitation solution with internal standard (5 ng/mL Terfenadine in MeOH/ACN), mix well by vortexing for 1 min at room temperature followed by centrifuge at 4° C. and 4000 rpm for 15 min. Save the supernatant as injection for LC-MS/MS quantification of exemplary compounds in plasma samples of mice.
# Establish a standard curve before and after each analytical batch, accompanied by quality controls of low, medium, and high concentrations. The number of quality control samples is not less than 6 and should be equal to or more than the number of samples of each batch, and interspersed in sample measurement. Standard curve and quality control samples of each batch must meet the acceptance criteria.
# C57BL/6 mice = assay: oGTT study (oral glucose tolerance test); type: in vivo, Male C57BL/6 mice; conditions: 30 mpk oral gavage, blood glucose AUC 0-120 minutes after 5 g/kg glucose challenge
# Procedure: (§1) Male C57BL/6 mice were purchased from Zhejiang Vital River Laboratories Co., Ltd (a branch of Charles River Laboratories) at around 7-8 weeks of age (n=8). Animal were kept under regular light/dark cycle (12 h light: 12 h dark, L^D) at room temperature and fed regular chow diet and tap water ad libitum in facility for more than one week. On study day, animals were fasted by removing food at 7:00 AM. Blood glucose was measured at 9:00 AM by a glucometer (Roche) via tail bleeding and mice were sorted to groups of treatment based on average blood glucose (˜[…]). The vehicle (0.5% methylcellulose) or exemplary compounds solutions (30 mpk dose) were mixed well and dosed by oral gavage (dosing volume=10 ml/kg body weight). At 1:00 PM, blood glucose was measured by a glucometer (0 min). Animals were then PO dosed with 5 g/kg glucose for oral glucose challenge. Blood glucose was then measured at 20, 40, 60, and 120 min by glucometer. At the end of study, 50 μl tail blood from treatment groups were collected and mixed with 4% sodium citrate (vol 9:1). Tubes were centrifuged in a benchtop centrifuge for 10 min at 8,000 RPM at 4° C. Plasma samples were separated and stored in −80° C. freezer for measurements of PK by LC-MS/MS.
# [2] = Plasma drug concentration at end of oGTT study by LC-MS/MS; type: in vivo, Male C57BL/6 mice; conditions: male, C57BL/6, mouse, 30 mpk oral, 6 h post dose, read-out: Drug conc
# Procedure: as §1
EC50 (GPR40) [nM],Cl [1] [ml/mL/kg],AUC [1] [µM·h],half-life [1] [h],Vd [1] [L/kg],Cmax [1] [nM],Tmax [1] [h],bioavailability [1] [%],concentration at 6 h [2] [ng/mL],SMILES,% change in AUC over vehicle (C57BL/6 mice) [%]
0.07,0.43,28.5,4.7,0.11,77,4,0.31,347 ± 125,COc1ccc(C(=O)N(CC(C)(C)CCCCCCCCCCCCCCCCCC(=O)NCCC[N+]23CC[N+](C)(CC2)CC3)c2cccc(C)n2)c(N2CCC(COc3cc([C@@H](CC(=O)O)C4CC4)ccn3)CC2)c1 [Example 19],−29.7
,0.10,,,0.08,,,,237 ± 2,COc1ccc(C(=O)N(CC(C)(C)CCCCCCCCCCCCCCCCCC(=O)NCC[N+](C)(CCCC(=O)NCCN)CCCC(=O)NCCN)c2cccc(C)n2)c(N2CCC(COc3cc([C@@H](CC(=O)O)C4CC4)ccn3)CC2)c1 [Example 17],−26.9
0.76,0.14,88.9,6.5,0.07,268,8,0.52,,COc1ccc(C(=O)N(CC(C)(C)CCCCCCCCCCCCCCCCCCCC(=O)NCCCN(CC(=O)O)CC(=O)O)c2cccc(C)n2)c(N2CCC(COc3cc([C@@H](CC(=O)O)C4CC4)ccn3)CC2)c1 [Example 13],
2.14,0.22,54.1,8.2,0.14,66.1,5.3,0.16,,COc1ccc(C(=O)N(CC(C)(C)CCCCCCCCCCCCCCCCCCCC(=O)NCC[N+](C)(CC(=O)NCCN)CC(=O)NCCN)c2cccc(C)n2)c(N2CCC(COc3cc([C@@H](CC(=O)O)C4CC4)ccn3)CC2)c1 [Example 4],
0.24,0.32,33.7,5.1,0.11,42,4,0.15,274 ± 99,"COc1ccc(C(=O)N(CC(C)(C)CCCCCCCCCCCCCCCCCC(=O)NCCC[N+]23CCN(CC2)CC3)c2cccc(C)n2)c(N2CCC(COc3cc([C@@H](CC(=O)O)C4CC4)ccn3)CC2)c1 [Example 18, (S)-1-(3-(20-(2-(4-(((4-(2-carboxy-1-cyclopropylethyl)pyridin-2-yl)oxy)methyl)piperidin-1-yl)-4-methoxy-N-(6-methylpyridin-2-yl)benzamido)-19,19-dimethylicosanamido)propyl)-1,4-diazabicyclo[2.2.2]octan-1-ium TFA salt]",−26.4
0.17,0.15,33.9,8.9,0.1,80.7,5.3,0.17,,COc1ccc(C(=O)N(CC(C)(C)CCCCCCCCCCCCCCCCCC(=O)NCCC[N+](C)(CC(=O)NCCN)CC(=O)NCCN)c2cccc(C)n2)c(N2CCC(COc3cc([C@@H](CC(=O)O)C4CC4)ccn3)CC2)c1 [Example 12],
2.04,0.67,18.5,7.2,0.36,37,6.7,0.34,,"COc1ccc(C(=O)N(CC(C)(C)CCCCCCCCCCCCCCCCCCCCCC[N+]23CCN(CC2)CC3)c2cccc(C)n2)c(N2CCC(COc3cc([C@@H](CC(=O)O)C4CC4)ccn3)CC2)c1 [Example 21, (S)-1-(24-(2-(4-(((4-(2-carboxy-1-cyclopropylethyl)pyridin-2-yl)oxy)methyl)piperidin-1-yl)-4-methoxy-N-(6-methylpyridin-2-yl)benzamido)-23,23-dimethyltetracosyl)-1,4-diazabicyclo[2.2.2]octan-1-ium]",
